Counter-ions that a name gives are not always drawn.
Assays:
[1] = test system: female Balb/C mice; assay: TNCB induced contact hypersensitivity in female Balb/c mice; format: in vivo; conditions: 10 mg/kg b. wt, oral, 24 h after TNCB challenge
Experimental: Contact hypersensitivity is a simple in vivo assay of cell-mediated immune function. In this procedure, exposure of epidermal cells to exogenous haptens results in a delayed type hypersensitive reaction that can be measured and quantified. Briefly, 7% TNCB solution was applied to the abdominal region of 8 week old Balb/c mice. Ear thickness was measured 7 days after TNCB sensitization. Compounds were administered orally followed by an application of 1% TNCB to inside and outside of ear pinnae. Ear thickness was measured 24 h after TNCB challenge

[2] = test system: guinea pigs; assay: OVA-induced asthma in guinea pigs; format: in vivo; conditions: 10 mg/kg b. wt, oral, 1 h before OVA challenge
Experimental: Pulmonary eosinophilia and airway remodelling in conjunction with altered neural control of airway tone and airway epithelial desquamation contributes to Airway Hyper-responsiveness (AHR) in asthma. For determination of eosinophil reduction, animals were sensitized with OVA on d0, d7, and d14 followed by another round (0.1% w/v) through inhalation on d19 & d20. Compounds were administered orally 1 h before OVA challenge (0.3%). BAL fluid was collected on d22 for differential count and cytokine estimation. For determination of change in respiratory parameters, animals were subjected to whole body plethysmography immediately after ova challenge.

[3] = test system: male DBA/1 Ola HSD mice; assay: Collagen-induced arthritis in male DBA/1 Ola HSD mice; format: in vivo; conditions: 10 mg/kg b. wt, daily, po, qd
Experimental: Collagen induced arthritis in rodent models have been widely used to illustrate and understand the development of the disease besides serving as a surrogate for validation of therapeutic targets for human rheumatoid arthritis. Mice were anesthetized with Isoflurane and given 150 μl of Bovine Type II collagen in Freund's complete adjuvant injections (day 0 and day 21). Treatment was initiated on study day 0 and continued once daily, every day (po, qd). Starting on day 18, clinical scores were given daily for each of the paws (right front, left front, right rear, left rear) and continued till the day of sacrifice (day 34). Daily administration of the test compound (Example 69) at 10 mg/kg b. wt alleviated arthritic symptoms, disease progression, and incidence by 30% compared to the control animals.

[4] = test system: female Balb/C mice; assay: Concanavalin (Con) A induced hepatitis in female Balb/C mice; format: in vivo; conditions: 10 mg/kg b. wt, oral, 1 hour prior to Con A, blood after 24 hours
Experimental: Con A is often used to prepare experimental animals with high levels of cytotoxic T-lymphocytes, because these cells are involved in the development of viral infections in humans. In this model, animals were administered test compounds orally 1 hour prior to intravenous administration of Con A. Blood samples were collected after 24 hours for determination of Serum glutamic oxaloacetic transaminase (SGOT) and Serum glutamic pyruvic transaminase (SGPT) in Serum.

[5] = test system: male Balb/c mice; assay: Foot paw delayed type hypersensitivity in male Balb/c mice; format: in vivo; conditions: 10 mg/kg, daily treatment day 0 to day 10
Experimental: DTH swelling responses can be used to follow the activity of immunosuppressive molecules and/or suppressor T cells in vivo. Intradermal antigen (methylated BSA) injections were given to mice (at base of tail) on day 0 and day 7. Compounds were administered once daily from day 0 to day 10 Methylated BSA was injected into the right hind footpad of animals on day 10. Weight difference induced by antigen was determined by weighing the right and left hind paws 24 h after injection of methylated BSA (day 11).

[6] = biological target: CRAC channels (Homo sapiens (Human), UniProt Q96D31); assay: In-vitro CRAC channel inhibition assay in Jurkat cells (thapsigargin-induced calcium influx); format: cell-based; conditions: Jurkat cells, thapsigargin-induced calcium influx
Experimental: Inhibition of CRAC channels was determined following thapsigargin (Sigma, Cat # T9033) induced endoplasmic calcium release in Jurkat cells. […] Cells were centrifuged and re-suspended in equal volumes ° f Ca^2+ and Mg^2+ free Hanks buffer and Fluo-8 NW dye (ABD Bioquest, Inc., Sunnyvale, Calif.) loading solution at 2×10^5 cells/100 μl/well in 96-well black plate. Plate is incubated at 37° C., 5% CO2 for 30 min followed by further 15 min incubation at room temperature. Test compounds (DMSO stocks diluted in Ca^2+ and Mg^2+ free Hanks buffer) at desired concentrations were added to the wells and incubated for […] Thapsigargin (1 μM final concentration) was added to the wells and incubated for 15 min to inhibit the Sarco-endoplasmic reticulum Ca^2+ ATPase pump thereby depleting endoplasmic calcium and raising cytosolic calcium concentrations. Store-operated calcium entry was initiated by adding extracellular Ca^2+ to a final concentration of 1.8 mM. Fluorescence was monitored over […] on a plate reader (BMG Labtech., Germany) with excitation at 485 nm and an emission wavelength at 520 nm. Data were analyzed using GraphPad Prism. IC50 for each compound was determined based on the percent inhibition of thapsigargin-induced calcium influx into cells.

[7] = biological target: CRAC channels over the voltage operated channels (VOC) (Homo sapiens (Human), UniProt Q96D31); conditions: Yonetoky et al.; cited from earlier work
CRAC channels over the voltage operated channels (VOC), sequence (Q96D31 whole entry): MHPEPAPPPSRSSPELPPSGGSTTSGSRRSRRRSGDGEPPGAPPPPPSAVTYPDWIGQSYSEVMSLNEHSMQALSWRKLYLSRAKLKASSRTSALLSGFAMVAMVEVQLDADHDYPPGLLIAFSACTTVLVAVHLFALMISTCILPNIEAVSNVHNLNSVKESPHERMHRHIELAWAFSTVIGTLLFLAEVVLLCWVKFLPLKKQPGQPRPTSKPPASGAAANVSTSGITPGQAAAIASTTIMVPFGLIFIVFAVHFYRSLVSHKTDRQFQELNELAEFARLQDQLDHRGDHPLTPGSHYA

CRAC channels, sequence (Q96D31 whole entry): as above

| Structure (SMILES) | IC50 [6] | other results |
| --- | --- | --- |
| Cc1ncc(C(=O)Nc2ccc(-n3nc(C(F)(F)F)cc3C3CC3)cc2)c(C)n1 [Example 69, N-{4-[5-cyclopropyl-3-(trifluoromethyl)-1H-pyrazol-1-yl]phenyl}-2,4-dimethylpyrimidine-5-carboxamide] | – | reduction in ear inflammation [1]: > 70%; reduction in blood eosinophils [2]: > 70%; respiration (whole body plethysmography) ([2]; plethysmography immediately after ova challenge): improvement in respiration; alleviation of arthritic symptoms, disease progression, and incidence compared to control animals [3]: 30%; reduction in serum SGOT & SGPT [4]: > 85%; reduction in antigen-induced paw inflammation [5]: > 40% |
| Cc1ccccc1C(=O)Nc1ccc(-n2nc(C(F)(F)F)cc2C2CC2)cc1 [Example 60, N-{4-[5-cyclopropyl-3-(trifluoromethyl)-1H-pyrazol-1-yl]phenyl}-2-methylbenzamide] | 120 nM | – |
| Cc1ncsc1CNc1ccc(-n2nc(C(F)(F)F)cc2C2CC2)cc1 [Example 74, 4-[5-cyclopropyl-3-(trifluoromethyl)-1H-pyrazol-1-yl]-N-[(4-methylthiazol-5-yl)methyl]aniline] | 48 nM | – |
| O=C(Nc1ccc(-n2nc(C3CC3)cc2C2CC2)c(F)c1)c1ccncc1 [Example 35, N-[4-(3,5-dicyclopropyl-1H-pyrazol-1-yl)-3-fluorophenyl]isonicotinamide hydrochloride] | 185 nM | inhibition at 1 µM ([6]; 1 uM): 100% |
| Cc1nnsc1C(=O)Nc1ccc(-n2nc(C(F)(F)F)cc2C(F)(F)F)cc1 [YM-58483] | – | selective index (CRAC channels over VOC) [7]: 31 |

More lines, in order of falling IC50 [6], values ahead:

| IC50 [6] | Structure (SMILES) | other results |
| --- | --- | --- |
| 851 nM | Cc1ncsc1C(=O)Nc1ccc(-n2nc(C3CC3)cc2C2CC2)nc1 [Example 39, N-[6-(3,5-dicyclopropyl-1H-pyrazol-1-yl)pyridin-3-yl]-4-methylthiazole-5-carboxamide hydrochloride] | – |
| 194 nM | Cc1ncsc1C(=O)Nc1ccc(-n2nc(C(F)(F)F)c(Cl)c2C2CC2)cc1 [Example 80, N-{4-[4-chloro-5-cyclopropyl-3-(trifluoromethyl)-1H-pyrazol-1-yl]phenyl}-4-methylthiazole-5-carboxamide] | – |
| 181 nM | Cc1nnsc1C(=O)Nc1ccc(-n2nc(C3CC3)c(Cl)c2C2CC2)c(F)c1 [Example 37, N-[4-(4-chloro-3,5-dicyclopropyl-1H-pyrazol-1-yl)-3-fluorophenyl]-4-methyl-1,2,3-thiadiazole-5-carboxamide] | – |
| 145 nM | O=C(Nc1ccc(-n2nc(C3CC3)cc2C2CC2)c(F)c1)c1c(F)cccc1F [Example 33, N-[4-(3,5-dicyclopropyl-1H-pyrazol-1-yl)-3-fluorophenyl]-2,6-difluorobenzamide] | – |
| 99.7 nM | O=C(Nc1c(F)cccc1F)c1ccc(-n2nc(C(F)(F)F)cc2C2CC2)c(F)c1 [Example 100, 4-[5-cyclopropyl-3-(trifluoromethyl)-1H-pyrazol-1-yl]-N-(2,6-difluorophenyl)-3-fluorobenzamide] | – |
| 32.6 nM | O=C(Nc1ccc(-n2nc(C(F)(F)F)cc2C2CC2)c(F)c1)c1cccc(F)c1F [Example 87, N-{4-[5-cyclopropyl-3-(trifluoromethyl)-1H-pyrazol-1-yl]-3-fluorophenyl}-2,3-difluorobenzamide] | – |
| 20.4 nM | O=C(Nc1ccc(-n2nc(C(F)(F)F)cc2C2CC2)cc1)c1ccncc1F [Example 67, N-{4-[5-cyclopropyl-3-(trifluoromethyl)-1H-pyrazol-1-yl]phenyl}-3-fluoroisonicotinamide] | – |

Source: US8921364B2, “Modulators of calcium release-activated calcium channel” (Rhizen Pharmaceuticals SA, priority 2009, dated 2014)
